“Also recorded” adds a separate entry of the source. Where no end group is shown, it is not given here.
What was measured:
Mice (Balb/c) [1] = assay: Extinction of contextual freezing behavior after contextual fear conditioning; type: in vivo
Experimental: Animals: Mice (Balb/c, 12 weeks old) were housed under standard conditions with access to food and water ad libitum. All mice were purchased from Taconic (Germantown, N.Y.). Behavior testing was performed in a way that the mice were either housed in a separated compartment but within the testing room or different rooms were used for housing and testing. In the latter case the mice were brought to the testing room before the procedure. Although it appears that the dynamics of extinction behavior are somewhat variable depending on the employed behavior facility, the trends remain the same in different experiments. All experiments were approved by the corresponding Animal Use and Care Committee.
(§1) Extinction of contextual freezing behavior: Extinction and reminder shock procedures were performed as described before^6. In brief, mice were exposed to contextual fear conditioning (3 min context followed by at mild electric foot shock, 2 s, 0.7 mA). In some experiments a tone (30 s, 10 kHz, 75 dB SPL) was presented for 30 s before the shock. Extinction was performed on consecutive days. An extinction trial consisted of a 3 min re-exposure to the conditioning context.
Surgery/injection: Microcannula were purchased custom made from PlasticOne. The gauge of the guide and injection cannulae was 26 and 28, respectively. To insert cannulae into the dorsal hippocampus the coordinates AP −1.5 mm, lateral 1 mm, depth 2 mm were used as described before^18. To insert cannulae icy the coordinates AP +0.5 mm, lateral 1 mm, depth 2 mm were used. Butyrolactone I and roscovitine were dissolved and injected as described before^18. Rac-1 inhibitor was dissolved in aCSF and delivered bilaterally (0.5 μl/side) over a 1 min period. The correct localization of the cannulae was verified at the end of an experiment by methyleneblue injection. The cis-tronic Herpes Virus expressing GFP and dnPAK-1 or GFP alone was injected into the hippocampus bilaterally (0.5 μl/side) over a 2 min period. DnPAK-1 consisted of the DNA encoding amino acid 83-149 of PAK-1.
To test for a role of Cdk5 activity during extinction of learned fear, mice were implanted with microcannulae into the dorsal hippocampus (i.h.) and trained in the contextual fear conditioning paradigm. Fear conditioning consisted of a 3 min context exposure followed by a single electric foot shock ([…], constant current, 2 s). Subsequently, all mice were subjected to a daily extinction trial (E) on 6 consecutive days (E1-E6). Each extinction trial consisted of a 3 min re-exposure to the conditioned context without presenting the foot-shock again.

p35/Cdk5 = assay: Immunoblot of p35/Cdk5 in hippocampal membrane and cytosolic fractions; type: in vivo, mice; conditions: icv 10 μg/μl after E1-E3, fractions 0.5 h after E3
Experimental: (§2) Immunoblot analysis: Immunoblot analysis was performed as described before^19. The antibody detecting pPAK-1Thr212 was used in a 1:250 dilution.
(§3) Anti-PAK-1 was from Santa Cruz (Santa Cruz, Calif.). All other antibodies were used in a 1:1000 dilution. pPAK-1Thr423 (Cell Signaling, Danvers, Mass.) synaptophysin (Sigma, St. Louis, Mo.), GAPDH and Rac-1 were from Upstate (Lake Placid, N.Y.), Cdk5 (J3) and p35 (C-19) were from Santa Cruz.
To this end, microcannuale were implanted into the lateral ventricles of mice that were subsequently trained by contextual fear conditioning and exposed to our extinction paradigm. Immediately after E1-E3 mice were injected with a Rac-1 inhibitor^35 (NSC23760; 10 μg/μl) or vehicle. Hippocampal membrane and cytosolic fractions were prepared 0.5 h after E3 and analyzed by immunoblot.

PAK-1 = assay: Immunoblot of PAK-1, PAK-1T212 and PAK-1T423 in hippocampal membrane and cytosolic fractions; type: in vivo, mice
Experimental: as §2, §3
First, we measured PAK-1 phosphorylation at threonine 212 during extinction because this site is phosphorylated by p35/Cdk5^33. […] We also analyzed the activity of PAK-1 using a phospho-T423 antibody against PAK-1^37 in hippocampal lysates prepared from naïve mice and from mice 0.5 h after E1 or E3 by immunoblotting. We detected a significant increase in membrane associated PAK-1Thr423 levels after E3, when compared to E1 (FIG. 4b).
(§4) Next, we set out experiments to determine if the regulation of PAK-1 activity during extinction depended on the activities of Rac-1 and Cdk5/p35. To this end, lysates prepared from mice that were injected with a Rac-1 inhibitor or vehicle (as described under FIG. 3c) were analyzed by immunoblot. […] Consistently, PAK-1 levels increased in the cytosol of mice treated with Rac-1 inhibitor.
To investigate the impact of Cdk5/p35 activity on PAK-1 function during extinction, mice were implanted with microcannulae into the lateral ventricles and injected with 50 ng butyrolactone I immediately after E1. Because a single injection of butyrolactone I after E1 was sufficient to facilitate extinction (see FIG. 1d), hippocampal lysates were prepared 0.5 h after E1 and analyzed by immunoblotting using PAK-1 antibodies (FIG. 5a). […] In contrast, PAK-1T423 levels increased in lysates obtained from butyrolactone I injected mice (FIG. 5 b, c).

[2] = system: p35 co-immunoprecipitated with PAK-1; assay: Co-immunoprecipitation of PAK-1 and p35 from hippocampal lysates; type: in vivo, mice; conditions: Rac-1 inhibitor icv; 0.5 h after E3
Experimental: Membrane and cytosolic fractions were prepared form the hippocampus of mice 0.5 h after exposure to E1, E3 or from naïve animals and analyzed for the levels of the Cdk5 substrate PAK-1 by immunoblotting. […] In the cytosolic fraction pPAK-1T423 levels decreased after E1 when compared to naïve mice but increased back to baseline levels after E3. c. Hippocampal cytosolic and membrane fractions were prepared on E3 0.5 h after mice were injected (icv) with either vehicle or Rac-1 inhibitor. […] The same lysates as described under (c) were used to immunoprecipitate PAK-1. An HA antibody served a control for unspecific binding of proteins to the proteinA agarose beads. The precipitates were immunoblotted with antibodies against PAK-1 and p35. […] Error bars indicate S.E.M.
as §4

hippocampal Cdk5 = biological target: T1, hippocampal Cdk5 (Mus musculus, UniProt P49615); assay: Hippocampal Cdk5 activity measured by histone H1 phosphorylation; type: in vivo, mice
T1 construct: from tissue; host or cells: hippocampus of Balb/c mice
Experimental: (§5) In agreement with previous data the recovery of the fear response is rarely complete and may indicate that unlearning and new learning may coexist during extinction^29 30. […] In contrast, when butyrolactone I (50 ng) was administered 3 h after E1, freezing behavior was indistinguishable between butyrolactone I- and vehicle-injected mice (FIG. 1f). We estimated that the employed concentrations of butryrolactone I and roscovitine permit a specific inhibition of Cdk5. However high levels of those drugs may also affect Erk-1/2 kinases^31. […] Moreover, freezing behavior is not generally affected.

[3] = system: MAP kinase signaling pathway; assay: MAP kinase signaling pathway in hippocampus after injection; type: in vivo, mice; conditions: 50 ng into hippocampus
Experimental: as §5

Mice (Balb/c) [4] = assay: Extinction of amygdala-dependent cued fear; type: in vivo; conditions: intrahippocampal injection
Experimental: as §1, §5

[5] = system: Rac1 interaction with Rac1-specific GEFs TrioN, GEF-H1 and Tiam1; conditions: Gao et al (2001) J. Biol. Chem. 276 47530; cited from earlier work
[6] = Rac-1 inhibitor icv, 0.5 h after E3, cytosolic fraction
[7] = Rac-1 inhibitor icv, 0.5 h after E3, membrane fraction
[8] = 50 ng immediately after E1, fractions 0.5 h later
[9] = 50 ng immediately after E1, fractions 0.5 h later, listed as Butyrolactone I

T1 sequence (P49615 whole entry): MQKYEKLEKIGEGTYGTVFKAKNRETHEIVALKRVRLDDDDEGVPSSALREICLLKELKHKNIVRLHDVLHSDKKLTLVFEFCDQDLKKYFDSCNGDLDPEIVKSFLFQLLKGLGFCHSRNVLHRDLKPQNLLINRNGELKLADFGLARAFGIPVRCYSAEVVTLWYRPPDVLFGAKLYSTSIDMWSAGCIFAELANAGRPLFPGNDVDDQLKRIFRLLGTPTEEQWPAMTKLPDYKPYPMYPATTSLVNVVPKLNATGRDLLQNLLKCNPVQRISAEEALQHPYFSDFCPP
T1 sequence (P61809 2-307 partner limits assumed): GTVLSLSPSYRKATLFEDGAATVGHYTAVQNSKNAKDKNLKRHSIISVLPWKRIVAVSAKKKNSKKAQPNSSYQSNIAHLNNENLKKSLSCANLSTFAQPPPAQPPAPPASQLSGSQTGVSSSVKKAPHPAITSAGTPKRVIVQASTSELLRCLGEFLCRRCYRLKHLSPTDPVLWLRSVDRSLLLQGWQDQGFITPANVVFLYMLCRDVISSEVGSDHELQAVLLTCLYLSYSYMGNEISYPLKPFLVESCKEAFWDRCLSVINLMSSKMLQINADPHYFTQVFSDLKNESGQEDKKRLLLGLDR

Compound: CCN(CC)CCCC(C)Nc1nc(C)cc(Nc2ccc3nc(C)cc(N)c3c2)n1 (stereo not drawn) [NSC23760]
- freezing behavior vs. vehicle group (Mice (Balb/c) [1]; icv 10 μg/μl immediately after E1-E3): significant reduction of freezing behavior; also recorded: reduced freezing
- membrane associated p35 and Cdk5 levels / distribution vs. vehicle (p35/Cdk5): dramatic redistribution of membrane associated p35 and Cdk5 to the cytosol
- membrane associated p35 and Cdk5 levels / distribution vs. vehicle (p35/Cdk5; listed as Rac-1 inhibitor): significant reduction of membrane-associated Cdk5/p35
- PAK-1 levels in the cytosol vs. vehicle (PAK-1; [6]): increased
- cytosolic PAK-1T212 levels vs. vehicle (PAK-1; [6]): decreased
- membrane associated PAK-1T212 levels vs. vehicle (PAK-1; [7]): dramatic reduction; also recorded: significant reduction
- membrane associated PAK-1 levels vs. vehicle (PAK-1; [7]): dramatic reduction; also recorded: significant reduction
- amount of p35 co-immunoprecipitated with PAK-1 vs. vehicle [2]: reduced amount of p35 co-immunoprecipitated with PAK-1; also recorded: Much less p35 co-immunoprecipitated with PAK-1

Compound: COC(=O)[C@@]1(Cc2ccc(O)c(CC=C(C)C)c2)OC(=O)C(O)=C1c1ccc(O)cc1 [butyrolactone I]
- freezing behavior / extinction vs. vehicle group (Mice (Balb/c) [1]; 12.5 ng i.h. after E1-E3, listed as butyrolactone 1): no significant effect on the reduction of freezing behavior
- freezing behavior / extinction vs. vehicle group (Mice (Balb/c) [1]; 25 ng i.h. after E1-E3): Extinction was similar in vehicle and butyrolactone I injected mice
- freezing behavior / extinction vs. vehicle group (Mice (Balb/c) [1]; 25 ng i.h. after E1-E3, listed as butyrolactone 1): no significant effect on the reduction of freezing behavior
- freezing behavior / extinction vs. vehicle group (Mice (Balb/c) [1]; 50 ng i.h. 3 h after E1): indistinguishable
- freezing behavior / extinction vs. vehicle group (Mice (Balb/c) [1]; 50 ng i.h. 3 h after E1, listed as butyrolacone I): no significant effect on extinction
- freezing behavior vs. vehicle group (Mice (Balb/c) [1]; 50 ng i.h. immediately after E1-E3): reduced freezing behavior on E2 and E3
- freezing behavior vs. vehicle group (Mice (Balb/c) [1]; 50 ng i.h. immediately after E1-E3, listed as butyrolactone 1): significantly reduced freezing behavior on E2 and E3
- freezing behavior vs. vehicle group (Mice (Balb/c) [1]; 50 ng injected 1 h after E1): significant reduction of freezing behavior on E2
- reinstatement of freezing behavior by reminder shock procedure (Mice (Balb/c) [1]; after 50 ng i.h. following E1-E3): able to reinstate freezing behavior
- freezing behavior during the extinction trial (Mice (Balb/c) [1]; intrahippocampal injection 15 min before extinction trial 1 or 2): did not affect freezing behavior during the extinction trial
- freezing behavior vs. vehicle group (Mice (Balb/c) [1]; single injection i.h. 50 ng immediately after E1): significantly diminished freezing behavior on the subsequent extinction trials
- freezing behavior vs. vehicle group (Mice (Balb/c) [1]; single injection i.h. 50 ng immediately after E1, listed as butyrolactone): significant reduction of freezing behavior on E2
- hippocampal Cdk5 activity (histone H1 phosphorylation) (hippocampal Cdk5; 12.5 ng i.h.): did not reduce hippocampal Cdk5 activity
- hippocampal Cdk5 activity (histone H1 phosphorylation) (hippocampal Cdk5; 25 ng i.h.): did not reduce hippocampal Cdk5 activity
- effect on MAP kinase signaling pathway [3]: did not affect the MAP kinase signaling pathway
- extinction of amygdala-dependent cued fear (Mice (Balb/c) [4]): did not affect extinction of amygdala-dependent cued fear
- PAK-1T212 levels in the cytosolic fraction vs. vehicle (PAK-1; [8]): significantly reduced
- PAK-1T212 levels in the membrane fraction vs. vehicle (PAK-1; [8]): reduced
- distribution of total PAK-1 between membrane and cytosol vs. vehicle (PAK-1; [8]): re-distribution of total PAK-1 from the membrane to the cytosol
- PAK-1T212 levels in the cytosolic fraction vs. vehicle (PAK-1; [9]): decreased
- PAK-1T212 levels in the membrane fraction vs. vehicle (PAK-1; [9]): decreased
- distribution of total PAK-1 between membrane and cytosol vs. vehicle (PAK-1; 50 ng immediately after E1, fractions 0.5 h later, listed as butyrolactone): significant re-distribution of PAK-1 from the membrane to the cytosol
- PAK-1T423 levels vs. vehicle (PAK-1; 50 ng immediately after E1, fractions 0.5 h later, membrane fraction (FIG. 5c)): significantly increased

Compound: CC[C@H](CO)Nc1nc(NCc2ccccc2)c2ncn(C(C)C)c2n1 [roscovitine]
- freezing behavior vs. vehicle group (Mice (Balb/c) [1]; roscovitine i.h. 50 ng into dorsal hippocampus immediately after E1-E3): reduced freezing behavior

Compound: MVDGKPVNLGLWDTAG [Rac1 Inhibitor W56]
- inhibition of Rac1 interaction with Rac1-specific GEFs [5]: selectively inhibits
